According to US20060057665A1, “Galectin-14 therapeutic molecule and uses thereof” (The University of Melbourne, priority 2001, published 2006):

How the values were obtained:
GST-galectin-14 = test: Saccharide inhibition of GST-galectin-14 induced hemagglutination; format: cell-based, rabbit; settings: 0.28 μM GST-galectin-14; sugars 0.78-100 mM
Method: FIG. 14 is an image of a hemagglutination assay using GST-galectin-14 fusion protein. Agglutination of rabbit erythrocytes was assayed in a 96-well microtiter plate. Assays were conducted in the presence (2, 3, 4, and 5) or absence (1 and 6) of 0.28 μM recombinant GST-galectin-14, the minimum concentration to induce agglutination. Increasing concentrations (0.78-100 mM) of lactose (2), galactose (3), or N-acetyl-glucosamine (4) were added to inhibit agglutination. In the presence of GST-galectin-14 without sugar (5) the rabbit erythrocytes form a “mat” at the bottom of the wells. The assay buffer DES alone (1) and 3 μM rGST (6) were included as negative controls. Trypsin-treated, glutaraldehyde fixed rabbit erythrocytes were prepared and tested in an agglutination assay according to the method of Nowak et al. (Nowak et al. (1976) supra). Agglutination assays were performed in 96-well V-shaped microtiter plates with serial 2-fold dilutions of samples in 25 μl of DES (0.15 M NaCl, 2 mM EDTA, 2 mM dithiothreitol), 50 μl of 0.5% (w/v) BSA in 0.15 M NaCl and 25 μl of a 4% suspension of rabbit erythrocytes. The plates were shaken vigorously for 30 s, and agglutination was read after the plates had stood at room temperature for 1 h. Agglutinated erythrocytes formed a “mat” on the bottom of the well. For assessment of the inhibitory effects of saccharides, lactose, galactose, and N-acetyl-glucosamine were serially diluted in 25 μl of 0.15 M NaCl prior to the addition of recombinant protein in DES, 25 μl of 1% (w/v) BSA in 0.15 M NaCl, and 4% erythrocytes in PBS. The minimum concentration of GST-galectin-14 that gave mat formation (0.28 μM) was used in the saccharide inhibition assay. For assessment of the effects of antibody on GST-galectin-14 hemagglutination, ascites and supernatants from monoclonal antibodies and polyclonal rabbit sera all raised to recombinant galectin-14 were serially diluted in 25 μl of 0.15 M NaCl prior to the addition of recombinant protein in DES, 25 μl of 1% (w/v) BSA in 0.15 M NaCl, and 4% erythrocytes in PBS. […]

[1] = test system: GST-galectin-14 binding to laminin; test: Lactose inhibition of GST-galectin-14 binding to immobilised laminin; settings: 0.3 M lactose added
Method: FIG. 17 is an image of the saturation binding of GST-galectin-14 fusion protein to immobilised laminin. Laminin binding of GST-galectin-14 fusion protein was assayed using a solid-phase binding assay in a 96-well microtitre plate. Serial dilutions of GST-galectin-14 (▪) and GST (▴) were added to microtitre wells containing laminin. 0.3 M Lactose was added to GST-galectin-14 to inhibit binding (◯). The level of bound protein was monitored by the binding of rabbit anti-GST HRP antibody developed with TMB substrate and detected by a change in absorbance at 450 nm. Laminin binding activity was measured according to the method of Mazurek et al. with some modification. Briefly, the wells of a 96-well microtitre plate were coated with laminin from Engelbreth-Holm-Swarm murine sarcoma (Sigma) at 1 μg/100 μl of carbonate coating buffer (15 mM Na2CO3, 35 mM NaHCO3, pH 9.6) per well overnight at 4° C. Non-specific binding sites were blocked with 200 μl of 0.5% Tween 20 in PBS for 1 h. Plates were washed 3 times in 0.05% Tween 20 PBS and incubated with 50 μl serial dilutions of GST-galectin-14 or GST alone, diluted in 0.5% Tween 20 PBS, for 1.5 h at 37° C. Control wells contained 0.3 M lactose. […] The reaction was terminated with 100 μl 2 M sulphuric acid and the colour change monitored using a dual wavelength mode plate reader (Bio-tek instruments) at 450 nm, ref 690 nm.

rabbit erythrocytes = test: Hemagglutination assay on trypsin-treated, glutaraldehyde fixed rabbit erythrocytes; format: cell-based; settings: negative control protein, 3 μM rGST
Method: Trypsin-treated, glutaraldehyde fixed rabbit erythrocytes were prepared and tested in an agglutination assay according to the method of Nowak et al. (Nowak et al. (1976) supra). Agglutination assays were performed in 96-well V-shaped microtiter plates with serial 2-fold dilutions of samples in 25 μl of DES (0.15 M NaCl, 2 mM EDTA, 2 mM dithiothreitol), 50 μl of 0.5% (w/v) BSA in 0.15 M NaCl and 25 μl of a 4% suspension of rabbit erythrocytes. The plates were shaken vigorously for 30 s, and agglutination was read after the plates had stood at room temperature for 1 h. Agglutinated erythrocytes formed a “mat” on the bottom of the well. For assessment of the inhibitory effects of saccharides, lactose, galactose, and N-acetyl-glucosamine were serially diluted in 25 μl of 0.15 M NaCl prior to the addition of recombinant protein in DES, 25 μl of 1% (w/v) BSA in 0.15 M NaCl, and 4% erythrocytes in PBS. The minimum concentration of GST-galectin-14 that gave mat formation (0.28 μM) was used in the saccharide inhibition assay. For assessment of the effects of antibody on GST-galectin-14 hemagglutination, ascites and supernatants from monoclonal antibodies and polyclonal rabbit sera all raised to recombinant galectin-14 were serially diluted in 25 μl of 0.15 M NaCl prior to the addition of recombinant protein in DES, 25 μl of 1% (w/v) BSA in 0.15 M NaCl, and 4% erythrocytes in PBS. […]

Row | effect on binding of GST-galectin-14 to laminin [1] | Compound | lowest sugar concentration at which inhibition of agglutination becomes evident (GST-galectin-14) [mM] | induction of hemagglutination (rabbit erythrocytes)
1 |  | CC(=O)N[C@H]1C(O)O[C@H](CO)[C@@H](O)[C@@H]1O (some centres unmarked) [N-acetyl-glucosamine] | 50 | 
2 |  | O=C[C@H](O)[C@@H](O)[C@@H](O)[C@H](O)CO [galactose] | 12.5 | 
3 | reduced to the level of the control | OC[C@H]1O[C@@H](O[C@H]2[C@H](O)[C@@H](O)C(O)O[C@@H]2CO)[C@H](O)[C@@H](O)[C@H]1O (some centres unmarked) [lactose] | 0.78 | 
4 |  | GST: GST moiety alone, used as negative control protein [reference compound] |  | does not
